Results: US20110020312A1, “METHODS FOR TREATMENT OF METABOLIC DISORDERS USING EPIMETABOLIC SHIFTERS, MULTIDIMENSIONAL INTRACELLULAR MOLECULES, OR ENVIRONMENTAL INFLUENCERS” (priority 2009, published 2011)

Experiments:
[1] = tested on: Pancreatic Cancer Cells (PaCa2); assay: Real-time PCR Angiogenesis Array; assay type: cell-based; conditions: 100 uM Q10, various times
Protocol: Experiments were carried out essentially as described above.

SKBr3 cells = assay: Nexin assay for apoptosis, 24 h Q10; assay type: cell-based, human; conditions: 50 μM or 100 μM Q10, 24 hours
Excerpt: The 7AAD dye will enter into cells with permeabilized cell membranes; primarily those cells that are in late apoptosis. Annexin-V-PE is a dye that binds to Phosphotidyl serine, which is exposed on the outer surface of the plasma membrane in early apoptotic cells. The Nexin reagent thus can be used to differentiate between different populations of apoptotic cells in a flow cytometer.

HDFa cells [2] = assay: Oxygen consumption rate (OCR), SeaHorse XF analyzer; assay type: cell-based, human; conditions: presence of CoQ10
Excerpt: (§1) Environmental influencers (e.g., MIMs or Epi-shifters) may also be identified by changes in cellular energetics. One example of the measurement of cellular energetics are the real-time measures of the consumption of molecular oxygen and/or the change in pH of the media of a cell culture. For example, the ability of a potential epi-shifter to modulate the metabolic state of a cell may be analyzed using, for example, the XF24 Analyzer (Seahorse, Inc.). This technology allows for real time detection of oxygen and pH changes in a monolayer of cells in order to evaluate the bioenergetics of a cell microenvironment. The XF24 Analyzer measures and compares the rates of oxygen consumption (OCR), which is a measure of aerobic metabolism, and extracellular acidification (ECAR), which is a measure of glycolysis, both key indicators of cellular energetics.
(§2) (SeaHorse Biosciences Inc, North Billerica, Mass.).
In this experiment, the OCR and extracellular acidification rate (ECAR) in normal cells lines were obtained in the presence and absence of CoQ10 to determine baseline values. It was observed that in its native nutrient environment, the basal OCR rates in normal cells lines are different, and are usually a function of the physiological roles of the cells in the body. […]

HDFa cells [3] = assay: Extracellular acidification rate (ECAR), SeaHorse XF analyzer; assay type: cell-based, human
Excerpt: as §1, §2
In this experiment, the OCR and extracellular acidification rate (ECAR) in normal cells lines were obtained in the presence and absence of CoQ10 to determine baseline values. It was observed that in its native nutrient environment, the basal OCR rates in normal cells lines are different, and are usually a function of the physiological roles of the cells in the body.
Table 51 below describes the ECAR values (mpH/min) in HDFa cells in the presence or absence of CoQ10 under normoxic and hypoxic conditions at 5.5 mM and 22 mM glucose.

COC1=C(OC)C(=O)C(C/C=C(\C)CC/C=C(\C)CC/C=C(\C)CC/C=C(\C)CC/C=C(\C)CC/C=C(\C)CC/C=C(\C)CC/C=C(\C)CC/C=C(\C)CCC=C(C)C)=C(C)C1=O [Q10, Coenzyme Q10] was tested, and the “genes modulated by Q10 treatment (Angiogenesis arrays)” value [1] was “AKT1, ANGPTL4, ANGPEP, CCL2, CDH4, CXCL1, EDG1, EFNA3, EFNB2, EGF, FGF1, ID3, IL1B, 1L8, KDR, NRP1, PECAM1, PROK2, SERPINF1, SPHK1, STAB1, TGFB1, VEGFA and VEGFB”, the “early and late apoptosis” value (SKBr3 cells) was “did not show any significant increases” and the OCR (HDFa cells [2]) was “influenced OCR”. The ECAR (HDFa cells [3]; high glucose hypoxic conditions, to value of untreated normoxic conditions) was “lowering of elevated ECAR” and the ECAR values (HDFa cells [3]; normal cells, normoxic and hypoxic, 5.5 mM and 22 mM glucose) was “minimal influence”.
